For 7 compounds, IC50 results are on record in patent US9242973B2, “Chromane compounds” (CoMentis, Inc., priority 2012, dated 2016).

For data set [1], the system named is Aβ production in SK-N-BE(2) neuroblastoma cells. The data set can be described thus: Test Example 3: Aβ production inhibition in cell (Aβ40 ELISA, SK-N-BE(2)). The conditions noted are these: Homo sapiens, SKNBE2, 6 h.
For another data set, the target named is BACE1 (Homo sapiens (Human), UniProt P56817). Nature of the data set: Test Example 1: BACE1 inhibition by FRET (MCA substrate); IC50 and Ki. The conditions noted are these: read-out: Test Example 1 IC50.
BACE1, sequence (P56817 75-416): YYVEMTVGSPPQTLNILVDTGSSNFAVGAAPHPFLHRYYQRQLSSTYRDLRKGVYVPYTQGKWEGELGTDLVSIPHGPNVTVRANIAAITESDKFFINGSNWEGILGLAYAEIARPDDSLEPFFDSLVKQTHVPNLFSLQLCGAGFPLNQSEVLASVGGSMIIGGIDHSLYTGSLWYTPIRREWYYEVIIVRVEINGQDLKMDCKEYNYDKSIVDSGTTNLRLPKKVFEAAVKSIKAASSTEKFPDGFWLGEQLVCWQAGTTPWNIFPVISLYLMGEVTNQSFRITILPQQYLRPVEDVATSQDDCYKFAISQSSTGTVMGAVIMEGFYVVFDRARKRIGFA
A further data set addresses hERG potassium channel (Homo sapiens (Human), UniProt Q12809). Nature of the data set: Test Example 5: hERG inhibition, automated patch clamp in hERG-expressing CHO cells. To be noted: read-out: Test Example 5 hERG IC50, QPatch, room temperature.
Setting [2] is: FRET, MCA substrate 3 μM, BACE1 65 nM, pH 4.4.

SMILES strings stand for the structures. Where two headings read alike, the source gives them in different places.

hERG potassium channel, sequence (Q12809 whole entry): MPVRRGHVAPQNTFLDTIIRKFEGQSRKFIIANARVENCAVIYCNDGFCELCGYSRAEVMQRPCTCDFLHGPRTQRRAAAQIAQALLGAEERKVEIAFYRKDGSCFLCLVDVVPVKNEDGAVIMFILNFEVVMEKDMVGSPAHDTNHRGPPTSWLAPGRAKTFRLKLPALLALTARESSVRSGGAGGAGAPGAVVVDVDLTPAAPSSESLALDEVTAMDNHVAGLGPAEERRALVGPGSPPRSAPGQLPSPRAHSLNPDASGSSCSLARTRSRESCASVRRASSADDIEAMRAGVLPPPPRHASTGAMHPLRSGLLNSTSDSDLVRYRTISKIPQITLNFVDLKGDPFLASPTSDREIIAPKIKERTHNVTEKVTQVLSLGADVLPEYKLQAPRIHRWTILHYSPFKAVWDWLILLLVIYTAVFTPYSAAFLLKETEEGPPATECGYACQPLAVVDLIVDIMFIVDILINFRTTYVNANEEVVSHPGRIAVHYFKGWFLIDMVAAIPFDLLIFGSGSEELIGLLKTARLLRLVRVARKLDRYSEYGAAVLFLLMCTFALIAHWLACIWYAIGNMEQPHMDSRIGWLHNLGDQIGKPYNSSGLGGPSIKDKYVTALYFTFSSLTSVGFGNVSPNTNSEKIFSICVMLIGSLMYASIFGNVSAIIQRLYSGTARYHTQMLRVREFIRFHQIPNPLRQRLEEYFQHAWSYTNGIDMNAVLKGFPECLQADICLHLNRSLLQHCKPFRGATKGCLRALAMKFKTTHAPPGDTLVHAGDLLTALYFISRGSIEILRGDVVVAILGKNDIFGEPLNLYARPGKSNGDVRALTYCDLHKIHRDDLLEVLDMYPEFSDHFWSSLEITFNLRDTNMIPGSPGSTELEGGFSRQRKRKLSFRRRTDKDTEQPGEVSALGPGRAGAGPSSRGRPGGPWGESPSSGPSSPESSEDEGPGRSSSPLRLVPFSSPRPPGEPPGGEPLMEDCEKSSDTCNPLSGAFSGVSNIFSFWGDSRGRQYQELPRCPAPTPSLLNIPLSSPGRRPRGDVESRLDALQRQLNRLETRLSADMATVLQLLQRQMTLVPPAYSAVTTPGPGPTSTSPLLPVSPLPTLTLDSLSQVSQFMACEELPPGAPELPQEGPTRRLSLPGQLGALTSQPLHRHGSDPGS

As for `CC1(C)Oc2ccc(NC(=O)c3ccc(F)cn3)cc2C2(COC(N)=N2)C12COC2` (stereo not drawn) [Example 28], the IC50 in data set [1] (read-out: Test Example 3 IC50) was 19 nM; on BACE1, 154 nM.

Take `CCCC1Oc2ccc(Br)cc2C2(COC(N)=N2)C12COC2` (single isomer, unassigned) [RP 11a]: the IC50 at BACE1 (setting [2]) is 15600 nM.

For `CC1(C)Oc2ccc(NC(=O)c3ncc(Cl)cc3F)cc2C2(COC(N)=N2)C12COC2` (stereo not drawn) [Example 30], the IC50 in data set [1] (read-out: Test Example 3 IC50) was found to be 2.3 nM; at BACE1, 97.5 nM.

Regarding `NC1=NC2(CO1)c1cc(NC(=O)c3ccc(Cl)cn3)ccc1OCC21CC1` (stereo not drawn) [RP 32], on BACE1 (setting [2]), the IC50 stood at 418 nM.

Take `CC1(C)Oc2ccc(NC(=O)c3ccc(C#N)cn3)cc2C2(COC(N)=N2)C12COC2` (stereo not drawn) [Example 197]: the IC50 on hERG potassium channel is above 10000 nM.

As to `CCCC1Oc2ccc(Br)cc2C2(COC(N)=N2)C12COC2` (single isomer, unassigned) [RP 11b], on BACE1 (setting [2]), the IC50 is 17400 nM.

With `NC1=NC2(CO1)c1cc(-c3cncnc3)ccc1OCC21CC1` (stereo not drawn) [RP 100], in data set [1] (read-out: Test Example 3 IC50, SK-N-BE(2) cells, 6 hours, Aβ40 ELISA normalized by viability), the IC50 turned out to be 250 nM.

Usually IC50 stands for the midpoint of a concentration-inhibition curve.
